We go through two compounds from patent publication US12606739B2, “Luminescent compound, method for producing luminescent compound, luminescent composition, luminescent thin film and luminescent particles” (KONICA MINOLTA, INC., priority 2020, dated 2026).

The data set is described as follows: Luminescence quantum yield of luminescent particles (melamine resin particles, aqueous dispersion). In kind it is physicochemical. The conditions noted are these: luminescent particle, concentration of the dye in the particle 20%, absolute fluorescence quantum yield. Here is the method:
The synthesized luminescent compound (Exemplary Compound 1-1) according to one or more embodiments of the present invention was added to 22 mL of water and dissolved. Thereafter, 2 mL of a 5% aqueous solution of Emulsion® 430 (polyoxyethyleneoleyl ether, manufactured by Kao Corporation), an emulsifier for emulsion polymerization, was added to the solution. After the solution was heated to 70° C. with stirring on a hot stirrer, 0.65 g of NIKALAC MX-035 (manufactured by Nippon Carbide Industries Co., Inc.), a melamine resin raw material, was added thereto. […]
Specifically, centrifugation was performed for 15 minutes at 20000 G using a centrifuge (Micro Refrigerated Centrifuge Model 3740 manufactured by Kubota Corporation), the supernatant was removed, ultrapure water was added thereto, ultrasonic irradiation was performed, and redispersion was performed. […] The absolute fluorescence quantum yield of the obtained aqueous dispersion of the fluorescent particles was measured using the fluorescence quantum yield measuring device (C11347-01, manufactured by Hamamatsu Photonics K.K), and this was taken as the luminescence quantum yield of the luminescent particles.
With respect to the above-described Comparative Compound 1 and Comparative Compound 2, preparation of luminescent particles and measurement of the luminescence quantum yield were performed in the same manner. […]

As to `CC(C)c1cccc(C(C)C)c1N1C(=O)c2cc(Oc3ccc(S(=O)(=O)O)cc3)c3c4c(Oc5ccc(S(=O)(=O)O)cc5)cc5c6c(cc(Oc7ccc(S(=O)(=O)O)cc7)c(c7c(Oc8ccc(S(=O)(=O)O)cc8)cc(c2c37)C1=O)c64)C(=O)N(c1c(C(C)C)cccc1C(C)C)C5=O` [Comparative Compound 1], the “Luminescence Quantum Yield” value was 10%.

With `CC(C)c1cccc(C(C)C)c1N1C(=O)c2cc(Oc3ccc(S(=O)(=O)O)cc3-c3ccccc3)c3c4c(Oc5ccc(S(=O)(=O)O)cc5-c5ccccc5)cc5c6c(cc(Oc7ccc(S(=O)(=O)O)cc7-c7ccccc7)c(c7c(Oc8ccc(S(=O)(=O)O)cc8-c8ccccc8)cc(c2c37)C1=O)c64)C(=O)N(c1c(C(C)C)cccc1C(C)C)C5=O` [Comparative Compound 2], the “Luminescence Quantum Yield” value is 9%.
